{"source": "paper PMC7292393", "about": "(PLoS ONE, 2020)", "key": {"human SUMO1 [1]": {"molecular_target": "T1, human SUMO1 (Homo sapiens, UniProt P63165)", "T1 construct": "encoding amino acids 1–97 of mature human SUMO1; host or cells: E. coli BL21 Rosetta (DE3)", "T1 sequence (P63165 1-97)": "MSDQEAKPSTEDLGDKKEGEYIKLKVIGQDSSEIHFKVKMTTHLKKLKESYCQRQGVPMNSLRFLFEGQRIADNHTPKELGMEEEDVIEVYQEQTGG", "assay": "Surface plasmon resonance (SPR) primary screen;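 note: recombinant human SUMO1 amine-coupled to a sensor chip, blank activated and quenched reference flow cell, flavonoids injected 2 min then 1 min dissociation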", "assay_type": "binding"}, "bovine ubiquitin [2]": {"molecular_target": "T2, bovine ubiquitin (Bos taurus, UniProt P0CG53)", "T2 construct": "native bovine ubiquitin (U6253); purchased Sigma-Aldrich U6253", "assay": "SPR binding to ubiquitin surface", "conditions": "Fig 2J", "procedure": "All injections were performed in a Biacore T200 (GE Healthcare, Chicago, IL) at a flow rate of 20 μl/min in running buffer (20 mM Hepes (pH 7.4), 150 mM NaCl, 5 mM MgCl2, 0.0005% Tween 20) at 25°C. CMD200 and HC1500 sensor chips (Zantec Bioanalytics, Duesseldorf, Germany) were used for the primary and secondary SPR screens and for obtaining SPR sensograms shown in Fig 2I and 2J, respectively. SUMO1 surface in CMD-200 sensor chip and HC1500 sensor chip were generated with immobilization levels 10887 and 19639 resonance units (RU), respectively. Ubiquitin surface in HC1500 sensor chip was generated with 6106 RU. Human SUMO1 and bovine ubiquitin biosensors were prepared by standard amine coupling chemistry as follows: An equal volume of 0.1 M N-hydroxysuccinimide (NHS) and 0.4 M ethyl(dimethylaminopropyl) carbodiimide was injected for 7 min at 5 μl/min over a single flow cell. Following this step, human SUMO1 or bovine ubiquitin (100 μg/ml in pH 4.5 acetate buffer) was injected for 15 min, immediately followed by a 7 min injection of 1M ethanolamine (pH 9). […] RUmax was calculated as 8320/MW ratio, where 8320 is AU of human SUMO1 immobilized onto the chip and MW ratio is the ratio of MW (Da) of SUMO1 to flavonoid. […]"}, "human SUMO1 [3]": {"molecular_target": "T1, human SUMO1", "assay": "Differential scanning fluorimetry (DSF) thermal shift", "assay_type": "binding"}, "SUMO1^Δ15": {"molecular_target": "T3, SUMO1^Δ15 (Homo sapiens, UniProt P63165)", "T3 construct": "encoding amino acids 1–97 of mature human SUMO1; made in house; host or cells: E. coli BL21 Rosetta (DE3)", "T3 sequence (P63165 with tags, fused parts or gaps limits assumed)": "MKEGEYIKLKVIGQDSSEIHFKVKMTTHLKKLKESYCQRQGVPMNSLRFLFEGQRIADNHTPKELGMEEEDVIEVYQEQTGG", "assay": "Differential scanning fluorimetry (DSF) thermal shift", "assay_type": "binding", "conditions": "2 μM SUMO1^Δ15, fisetin 20 to 200 μM", "procedure": "Here we used a variant of the human SUMO1 called SUMO1^Δ15 in which the N-terminal 15 amino acids of SUMO1 are removed. The first 15 amino acids of human SUMO1 are weakly conserved and reported to be unstructured, and so therefore might contribute to its instability. […] We next compared SUMO1^Δ15 directly with wild-type SUMO1.\nFluorescence-based thermal shift assays known as differential scanning fluorimetry (DSF) were performed following the general protocol described in [28]. In short, 20 μl reactions were prepared with 2 μM human SUMO1 or SUMO1^Δ15 protein exchanged in DSF buffer (50 mM Tris-Cl pH 8.0, 150 mM NaCl, 10% glycerol), 10X SYPRO Orange (ThermoFisher Scientific, Waltham, MA), and 0.3 μl of DMSO control or flavonoid dissolved in DMSO. PCR plates (white non-skirted, 96-well) were sealed with optical film, centrifuged, and incubated at 4 °C for 30 min prior to analysis. Thermal scanning (20°C for 30 s, followed by ramping from 20 °C to 90 °C at 0.5 °C/15 s) was performed using a real-time PCR setup (CFX384 Touch, Biorad, Hercules, CA) with filter sets for measurement of relative fluorescence units (RFU) at 0.5°C intervals. Tm was calculated from the maxima of the first derivative of RFU/temperature using GraphPad Prism7. For the HSF1 denaturation experiment, recombinantly expressed and affinity purified human HSF1 was exchanged in DSF buffer. […]"}, "bovine ubiquitin [4]": {"molecular_target": "T2, bovine ubiquitin", "assay": "Fluorescence quenching of fisetin", "assay_type": "binding", "conditions": "0.5 μM fisetin, corrected for dilution", "procedure": "(§1) The spectrum between 390–600 nm was measured with a PerkinElmer LS-55 fluorescence spectrometer. […] Excitation and emission slit wavelengths were 5 and 10 nm, respectively, with scan speed of 500 nm/min. […] Values were corrected for dilution as follows: Relative fluorescence values were calculated by subtracting fluorescence quenching observed upon addition of buffer alone."}, "human SUMO1 [5]": {"molecular_target": "T1, human SUMO1", "assay": "Fluorescence quenching of fisetin", "assay_type": "binding", "conditions": "0.5 μM fisetin, emission 511.5 nm, corrected for dilution", "procedure": "as §1"}}, "note": "Entries after “also recorded” stand apart in the source; their conditions may differ."}
{"smiles": "O=c1c(O)c(-c2ccc(O)c(O)c2)oc2cc(O)ccc12", "note": "[Fisetin, 3,3',4',7-tetrahydroxyflavone]", "values": [{"measurement": "SPR Screens 1°", "setting": "human SUMO1 [1]; 500 μM flavonoid in DMSO, cut-off of %RUmax of ~15", "result": "✓ (%RUmax with binding activity above cut-off)"}, {"measurement": "interaction in SPR primary screen", "setting": "human SUMO1 [1]; 500 μM, %RUmax above threshold of ~15%", "result": "interacted with SUMO1 in the primary screen"}, {"measurement": "%RUmax", "setting": "human SUMO1 [1]; SPR primary screen, 500 μM flavonoid in DMSO, (Mean RU/RUmax)*100", "result": 18.9, "unit": "%"}, {"measurement": "SPR binding to bovine ubiquitin", "setting": "bovine ubiquitin [2]", "result": "failed to bind to bovine ubiquitin"}, {"measurement": "SPR binding to bovine ubiquitin", "setting": "bovine ubiquitin [2]; listed as fisetin", "result": "no appreciable binding"}, {"measurement": "ΔTm at 300 µM", "setting": "human SUMO1 [3]", "result": "< 2", "unit": "°C"}, {"measurement": "effect on DSF thermogram / thermal stability of SUMO1", "setting": "human SUMO1 [3]; 2 μM SUMO1, 300 μM flavonoid", "result": "cause unfolding of human SUMO1; also recorded: unfolding of the protein at ambient temperature"}, {"measurement": "dose-dependent effect on DSF thermogram of SUMO1^Δ15", "setting": "SUMO1^Δ15", "result": "thermal destabilization"}, {"measurement": "quenching of fisetin fluorescence by ubiquitin", "setting": "bovine ubiquitin [4]", "result": "only marginal quenching"}, {"measurement": "quenching of fisetin fluorescence by SUMO1", "setting": "human SUMO1 [5]", "result": "Saturable binding was observed"}]}
